This assay has as its system PBMC from healthy, seropositive donors. The class given is cell-based, human.

We go through 69 sequences from paper PMC5869189 (Frontiers in Immunology, 2018).

Take AALPDALAFARACAMRFGRL [BPSS1599_P26]: the “% Responders” value came out at 89.6% and the “Median SFC/10^6 PBMCs (IFN-g)” value stood at 164.
The matching figures for AAQKAIDAAKSQVANDNAVA [BPSS1531_P40]: 85.7% and 198.
On to AATAVMAASASAQSVPASRQ [BPSL2522_P2], for which the “% Responders” value amounted to 88.6% and the “Median SFC/10^6 PBMCs (IFN-g)” value was 273.
On the same counts, the results for AELAARPEYRELQPYARQQA [BPSS1525_P20] are 92.3% and 216.
In the case of AGAILGAVVTGVALVAAAFV [BPSS1532_P44], the “% Responders” value is given as 100.0% and the “Median SFC/10^6 PBMCs (IFN-g)” value stood at 156.
Take AGTVMNVGNQVSQAAGGIVV [BPSS1532_P54]: the “% Responders” value came to 80.6% and the “Median SFC/10^6 PBMCs (IFN-g)” value amounted to 189.
Take AHLVLRSLIDELQSTLRVRL [BPSS0530_P21]: the “% Responders” value came to 93.0% and the “Median SFC/10^6 PBMCs (IFN-g)” value was determined as 258.
As to AHNQTLSQNRAQSVVNALAQ [BPSL0999_P16], the “% Responders” value is reported as 85.1% and the “Median SFC/10^6 PBMCs (IFN-g)” value turned out to be 350.
Consider AIFSEAKDRFCMDPATRAGN [BPSS1525_P13], for which the “% Responders” value was determined as 92.3% and the “Median SFC/10^6 PBMCs (IFN-g)” value is recorded as 200.
Turning to ALPDGRWAYFAVRDHAFMPN [BPSS1599_P11], the “% Responders” value came out at 95.8% and the “Median SFC/10^6 PBMCs (IFN-g)” value stood at 148.
Regarding ALPIARVAGRNASRTVSLDP [BPSS0530_P18], the “% Responders” value came out at 100.0% and the “Median SFC/10^6 PBMCs (IFN-g)” value is given as 249.
The matching figures for APDRRVEVEVVGTQEVQKTT [BPSL2522_P21]: 100.0% and 273.
Turning to APGGWRLERYECTPGTAHYA [BPSS1599_P28], the “% Responders” value was determined as 87.5% and the “Median SFC/10^6 PBMCs (IFN-g)” value was 163.
The matching figures for APGTPRRLTIETGQLVTRLC [BPSS0530_P15]: 93.0% and 255.
Turning to ASPTWRAYRLNANLGGIAPP [BPSS1599_P39], the “% Responders” value stood at 87.5% and the “Median SFC/10^6 PBMCs (IFN-g)” value worked out at 143.
On the same counts, the results for ASTSAQRVLSTGGGVADLIE [BPSS0530_P23] are 90.7% and 267.
As to ATFIVDPDNTIQHVSVNNLN [BPSL2096_P14], the “% Responders” value is reported as 91.2% and the “Median SFC/10^6 PBMCs (IFN-g)” value came out at 344.
AVNDNWVNGTGEWVWMNGTN [BPSL2522_P4]: the “% Responders” value was determined as 91.4% and the “Median SFC/10^6 PBMCs (IFN-g)” value is 368.
Regarding AVRDHAFMPNGDWVGSREEA [BPSS1599_P12], the “% Responders” value is recorded as 97.9% and the “Median SFC/10^6 PBMCs (IFN-g)” value was determined as 178.
On the same counts, the results for AWAERFDRYLDDADALVASA [BPSL2504_P8] are 91.4% and 317.
Turning to AWRREHKDLDKLNHYSFGDV [BPSL2096_P10], the “% Responders” value is on record as 88.2% and the “Median SFC/10^6 PBMCs (IFN-g)” value is 351.
For the sequence CIGKIVGWVITAVSFAAAAF [BPSS1532_P35], the “% Responders” value stood at 87.1% and the “Median SFC/10^6 PBMCs (IFN-g)” value is 172.
CLALQAARTGGPEMAFGDVE [BPSS0530_P11]: the “% Responders” value is 97.7% and the “Median SFC/10^6 PBMCs (IFN-g)” value was 256.
As for CMDPATRAGNVRPAFIEALG [BPSS1525_P14], the “% Responders” value is on record as 82.1% and the “Median SFC/10^6 PBMCs (IFN-g)” value is given as 200.
Take DAAAKLERLLPEQGPRAPLA [BPSS1599_P36]: the “% Responders” value is listed as 89.6% and the “Median SFC/10^6 PBMCs (IFN-g)” value was found to be 143.
Turning to DAARATGLPGADKQGVFTPS [BPSS1525_P16], the “% Responders” value was determined as 82.1% and the “Median SFC/10^6 PBMCs (IFN-g)” value came to 197.
In the case of DLDQDGLGLGRLGLRHARGV [BPSS0530_P6], the “% Responders” value is given as 90.7% and the “Median SFC/10^6 PBMCs (IFN-g)” value is 288.
Regarding DNATEAGRAQNRRVEIYLRA [BPSL0999_P20], the “% Responders” value was 93.6% and the “Median SFC/10^6 PBMCs (IFN-g)” value amounted to 353.
Regarding DPLPPAMLYHELVGLLGRLS [BPSS0530_P27], the “% Responders” value came out at 86.0% and the “Median SFC/10^6 PBMCs (IFN-g)” value was 239.
As for DQYAITPAFTPLLNDLATTL [BPSL0999_P12], the “% Responders” value turned out to be 83.0% and the “Median SFC/10^6 PBMCs (IFN-g)” value is reported as 358.
Regarding DRELGYDHDDLQTSFEPLAM [BPSS0530_P30], the “% Responders” value worked out at 88.4% and the “Median SFC/10^6 PBMCs (IFN-g)” value worked out at 310.
The matching figures for DRGDQVHICIVDKQWNLKKL [BPSS0530_P34]: 86.0% and 299.
As for DTDGERATLDVPLTAPTAND [BPSS1599_P32], the “% Responders” value was determined as 87.5% and the “Median SFC/10^6 PBMCs (IFN-g)” value turned out to be 148.
On to EAEEREAALERVRAELAARQ [BPSS1599_P23], for which the “% Responders” value is 91.7% and the “Median SFC/10^6 PBMCs (IFN-g)” value is recorded as 147.
For the sequence EAVELAKKLKFDLMVLRIDR [BPSS1599_P4], the “% Responders” value came to 85.4% and the “Median SFC/10^6 PBMCs (IFN-g)” value was found to be 137.
For ECTPGTAHYAWARNGSNVRY [BPSS1599_P29], the “% Responders” value was 97.9% and the “Median SFC/10^6 PBMCs (IFN-g)” value amounted to 162.
For EFVRAIDVPGLRVERIAYQN [BPSS1599_P41], the “% Responders” value is 87.5% and the “Median SFC/10^6 PBMCs (IFN-g)” value worked out at 135.
Turning to EKLRQLLPQQTKLGAVEQIQ [BPSS0530_P37], the “% Responders” value was 83.7% and the “Median SFC/10^6 PBMCs (IFN-g)” value is given as 222.
In the case of ELCWRDAFWTPATANAKCDG [BPSL2522_P6], the “% Responders” value is 91.4% and the “Median SFC/10^6 PBMCs (IFN-g)” value turned out to be 291.
Regarding ELERQGFQNFQPKRLDDLLP [BPSS1599_P16], the “% Responders” value turned out to be 83.3% and the “Median SFC/10^6 PBMCs (IFN-g)” value was 142.
Turning to ELQSTLRVRLASTSAQRVLS [BPSS0530_P22], the “% Responders” value turned out to be 88.4% and the “Median SFC/10^6 PBMCs (IFN-g)” value was 247.
On the same counts, the results for ELVGLLGRLSVLPGVDEELA [BPSS0530_P28] are 88.4% and 260.
As to ETGQLVTRLCWKSQLRSDEV [BPSS0530_P16], the “% Responders” value amounted to 81.4% and the “Median SFC/10^6 PBMCs (IFN-g)” value was 266.
As for ETPVLPLRFEDRGDQVHICI [BPSS0530_P33], the “% Responders” value amounted to 86.0% and the “Median SFC/10^6 PBMCs (IFN-g)” value was found to be 233.
Consider EVPDLAVGLDAPGTPRRLTI [BPSS0530_P14], for which the “% Responders” value stood at 95.3% and the “Median SFC/10^6 PBMCs (IFN-g)” value was 279.
For FAYWHHRAKVEAEEREAALE [BPSS1599_P22], the “% Responders” value turned out to be 95.8% and the “Median SFC/10^6 PBMCs (IFN-g)” value stood at 169.
As for FDLMVLRIDRGVAAAGYANT [BPSS1599_P5], the “% Responders” value stood at 89.6% and the “Median SFC/10^6 PBMCs (IFN-g)” value turned out to be 129.
As to FETVTEASFPGKWKIIYFYP [BPSL2096_P4], the “% Responders” value was 88.2% and the “Median SFC/10^6 PBMCs (IFN-g)” value is on record as 305.
On the same counts, the results for FEVESTDPFWKQTLAGSAMA [BPSS0530_P42] are 83.7% and 237.
Consider FSKIGETLGQLFRHRAPDSA [BPSS1525_P5], for which the “% Responders” value is listed as 89.7% and the “Median SFC/10^6 PBMCs (IFN-g)” value worked out at 178.
For the sequence FTVVAAKPGFNNHEENGQSA [BPSL2096_P2], the “% Responders” value amounted to 88.2% and the “Median SFC/10^6 PBMCs (IFN-g)” value amounted to 323.
As to GAAQMTAAIAGGALQATTSL [BPSS1531_P21], the “% Responders” value was determined as 97.1% and the “Median SFC/10^6 PBMCs (IFN-g)” value is on record as 225.
The matching figures for GAGIGALAGGGKGAAIGAGV [BPSL0999_P5]: 80.9% and 346.
For GALGGLLAFRSQTLDPAQAQ [BPSL0280_P29], the “% Responders” value was found to be 93.1% and the “Median SFC/10^6 PBMCs (IFN-g)” value is reported as 463.
For GALVGGVTGYNWQAIKNKLA [BPSL0999_P7], the “% Responders” value came out at 80.9% and the “Median SFC/10^6 PBMCs (IFN-g)” value is 322.
GDWVGSREEALERLHTDYAW [BPSS1599_P13]: the “% Responders” value was 95.8% and the “Median SFC/10^6 PBMCs (IFN-g)” value stood at 182.
On to GGERMSDEHASVLAQEAPAR [BPSS1531_P30], for which the “% Responders” value amounted to 91.4% and the “Median SFC/10^6 PBMCs (IFN-g)” value was 213.
On to GGWNVVIGEPELERQGFQNF [BPSS1599_P15], for which the “% Responders” value was 87.5% and the “Median SFC/10^6 PBMCs (IFN-g)” value is recorded as 179.
The matching figures for GKGAAIGAGVGALVGGVTGY [BPSL0999_P6]: 91.5% and 357.
In the case of GPEMAFGDVELASRYRAVST [BPSS0530_P12], the “% Responders” value worked out at 97.7% and the “Median SFC/10^6 PBMCs (IFN-g)” value is on record as 308.
Consider GRQVYEATLCAIFSEAKDRF [BPSS1525_P12], for which the “% Responders” value is recorded as 84.6% and the “Median SFC/10^6 PBMCs (IFN-g)” value is 201.
Turning to GVAAAGYANTRDGFAPGHLS [BPSS1599_P6], the “% Responders” value is reported as 85.4% and the “Median SFC/10^6 PBMCs (IFN-g)” value stood at 129.
Consider GVALVAAAFVGASAVKAVAS [BPSS1532_P45], for which the “% Responders” value is listed as 83.9% and the “Median SFC/10^6 PBMCs (IFN-g)” value was 142.
On to HAEQALELRGINKPVLSNDE [BPSS1531_P26], for which the “% Responders” value was 85.7% and the “Median SFC/10^6 PBMCs (IFN-g)” value amounted to 219.
Take HFQQLERHLAHQASLRLGQT [BPSS0530_P3]: the “% Responders” value was determined as 83.7% and the “Median SFC/10^6 PBMCs (IFN-g)” value was found to be 253.
As for HQASLRLGQTSNHGWGFTLL [BPSS0530_P4], the “% Responders” value is reported as 83.7% and the “Median SFC/10^6 PBMCs (IFN-g)” value is 239.
In the case of IFAFSAAMPAEKLRQLLPQQ [BPSS0530_P36], the “% Responders” value was 95.3% and the “Median SFC/10^6 PBMCs (IFN-g)” value was 298.
For IGSDKYNDRLSLRRAQAVKS [BPSL2522_P15], the “% Responders” value worked out at 97.1% and the “Median SFC/10^6 PBMCs (IFN-g)” value was determined as 290.
As to IQHVSVNNLNVGRSPEEILR [BPSL2096_P15], the “% Responders” value was 82.4% and the “Median SFC/10^6 PBMCs (IFN-g)” value was found to be 314.
